Source: patent US20210292330A1, “PYRROLIDINE-FUSED HETEROCYCLES” (Erasca, Inc., priority 2020, published 2021)

Biological target: T1, KRAS 4B G12C protein (Homo sapiens, UniProt P01116, G12C)
T1 construct: This protein contained 188 amino acids in total, including an N-terminal 6-Histidine tag; made in house; host or cells: E. coli BL21
Test: In vitro covalent adduct formation (CAF) assay by LC-MS
Format: binding
Settings: compound 10 μM, protein 5 μM, 22° C., percentage of protein bound by the compound
Description: In vitro covalent adduct formation assay: Covalent adduct formation (CAF) reactions between Cys12 of the KRAS 4B G12C protein and some of the compounds of Table 1 were measured in vitro using liquid chromatography-mass spectrometry (LC-MS).
Recombinant Human KRAS 4B protein containing the G12C mutation was used in compound screening experiments. This protein contained 188 amino acids in total, including an N-terminal 6-Histidine tag, followed by a Tobacco Etch Virus (TEV) tag, followed by residues 1-169 of the native KRAS 4B sequence. The exact mass of the protein was 21,310 Da as determined by mass spectrometry. The full amino acid sequence is shown below:
The recombinant protein was expressed in E. coli BL21 cells and purified using affinity chromatography via a Ni-NTA column. […] Pure KRAS 4B G12C protein was diluted to a concentration of 5 μM in Tris Buffered Saline, pH 7.4. The compounds were dissolved in DMSO and added to the diluted protein to make a 10 μM concentration. The total DMSO concentration in the reaction was 4%. The reaction was mixed by pipetting and incubated at 22° C. for one hour. Aliquots of the reaction were taken over time and diluted 2:1 in 0.1% formic acid. The intact mass of the protein samples was measured by LC-MS using a QExactive+ mass spectrometer (Thermo Scientific). An amount of 500 ng total protein was injected onto a C8 reverse phase column, eluted with a seven-minute gradient of 30%-90% acetonitrile/0.1% formic acid, and analyzed for intact mass by the mass spectrometer. Adducts identified were confirmed to be within 1 Dalton of the expected mass, and the relative ratios of free:adduct protein were used to quantify the percentage of protein bound by the compound. CAF reactions were run in duplicate, with a typical variability of ±5%.

SMILES	CAF (10 minutes/60 minutes) at 10 micromolar: 10 minutes	CAF (10 minutes/60 minutes) at 10 micromolar: 60 minutes
C=CC(=O)N1C[C@H](C)N(c2nc(OC[C@@H]3CCCN3C)nc3c2CN(Cc2cc(O)ccc2F)C3)C[C@H]1C [1-32]	7%	41%
C=CC(=O)N1CCN(c2nc(OC[C@@H]3CCCN3C)nc3c2CN(Cc2c(Cl)cccc2OC(F)F)C3)[C@@H](C)C1 [1-99]	0%	6%
C=CC(=O)N1CCN(c2nc(OC[C@@H]3CCCN3C)nc3c2CN(C(C)c2ccccc2C(C)C)C3)C[C@@H]1CC#N (some centres unmarked) [1-189]	57%	61%
C=CC(=O)N1CCN(c2nc(OC[C@@H]3CCCN3C)nc3c2CN(Cc2cc(O)c(Cl)cc2C)C3)C[C@@H]1CC#N [1-331]	32%	76%
C=CC(=O)N1CCN(c2nc(OC[C@@H]3CCCN3C)nc3c2CN(Cc2cc(OC)ccc2C)C3)[C@@H](C)C1 [1-2]	0%	4%
C=CC(=O)N1CCN(c2nc(OC[C@@H]3CCCN3C)nc3c2CN(Cc2c(C)cc(C)c(O)c2C)C3)C[C@@H]1CC#N [1-324]	31%	78%
C=CC(=O)N1CCN(c2nc(OC[C@@H]3CCCN3C)nc3c2CN(Cc2c(O)cccc2F)C3)C[C@@H]1CC#N [1-7, 2-((S)-1-acryloyl-4-(6-(2-fluoro-6-hydroxybenzyl)-2-(((S)-1-methylpyrrolidin-2-yl)methoxy)-6,7-dihydro-5H-pyrrolo[3,4-d]pyrimidin-4-yl)piperazin-2-yl)acetonitrile]	96%	97%
C=CC(=O)N1CCN(c2nc(OC[C@@H]3CCCN3C)nc3c2CN(Cc2c(Cl)cccc2OC(F)F)C3)C[C@@H]1C [1-85]	0%/ 0%	0%/ 0%
C=CC(=O)N1CCN(c2nc(OC[C@@H]3CCCN3C)nc3c2CN(Cc2ccccc2F)C3)C[C@@H]1CC#N [1-102]	89%	96%
C=CC(=O)N1C2COCC1CN(c1nc(OC[C@@H]3CCCN3C)nc3c1CN(Cc1cc(OC)ccc1Cl)C3)C2 [1-114]	0%/ 0%	0%/ 0%
C=CC(=O)N1CCN(c2nc(OC[C@@H]3CCCN3C)nc3c2CN(C(C)c2cc(O)ccc2C)C3)[C@@H](C)C1 (some centres unmarked) [1-54]	70%	77%
C=CC(=O)N1CCN(c2nc(OC[C@@H]3CCCN3C)nc3c2CN(c2cccc4ccccc24)C3)C[C@@H]1CC#N [1-9, 2-[(2S)-4-(2-{[(2S)-1-methylpyrrolidin-2-yl]methoxy}-6-(naphthalen-1-yl)-5H,7H-pyrrolo[3,4-d]pyrimidin-4-yl)-1-(prop-2-enoyl)piperazin-2-yl]acetonitrile]	35%	85%
C=CC(=O)N1CCN(c2nc(OC[C@@H]3CCCN3C)nc3c2CN(Cc2cc(F)ccc2Cl)C3)[C@@H](C)C1 [1-34]	0%	14%
C=CC(=O)N1CCN(c2nc(OCC3CCCC3)nc3c2CN(Cc2c(F)cccc2OC)C3)C[C@@H]1CC#N [1-66]	1%	14%
C=CC(=O)N1CCN(c2nc(OC[C@@H]3CCCN3C)nc3c2CN(Cc2c(Cl)cccc2OC)C3)C[C@@H]1CC(F)(F)F [1-125]	0%/ 0%	0%/ 0%
C=CC(=O)N1CCN(c2nc(OC[C@@H]3CCCN3C)nc3c2CN(Cc2cc(F)ccc2C)C3)[C@@H](C)C1 [1-20]	0%	6%

SMILES	CAF (10 minutes/60 minutes) at 10 micromolar: 10 minutes	CAF (10 minutes/60 minutes) at 10 micromolar: 60 minutes
C=CC(=O)N1CCN(c2nc(OC[C@@H]3CCCN3C)nc3c2CN(Cc2ccccc2Cl)C3)C[C@@H]1CC#N [1-75]	96%	97%
C=CC(=O)N1CCN(c2nc(OC[C@@H]3CCCN3C)nc3c2CN(Cc2ccccc2CC(F)(F)F)C3)C[C@@H]1CC#N [1-225]	77%	93%
C=CC(=O)N1CCN(c2nc(OC[C@@H]3CCCN3C)nc3c2CN(C2CCc4cccc(Cl)c42)C3)C[C@@H]1CC#N (some centres unmarked) [1-84]	98%	99%
C=CC(=O)N1CCN(c2nc(OC[C@@H]3CCCN3C)nc3c2CN(C2CCc4ccccc42)C3)C[C@@H]1CSC (some centres unmarked) [1-195]	0%	2%
C=CC(=O)N1CCN(c2nc(OC[C@@H]3CCCN3C)nc3c2CN(Cc2cc(C(F)(F)F)ccc2C)C3)C[C@@H]1CC#N [1-8]	20%	62%
C=CC(=O)N1CCN(c2nc(OC[C@@H]3CCCN3C)nc3c2CN(Cc2cc(O)ccc2C)C3)C[C@@H]1CC#N [1-40]	98%/ 98%	98%/ 98%
C=C(F)C(=O)N1CCN(c2nc(OC[C@@H]3CCCN3C)nc3c2CN(Cc2cccc4ncccc24)C3)C[C@@H]1CC#N [1-319]	0%/ 0%	0%/ 0%
C=CC(=O)N1CCN(c2nc(OC[C@@H]3CCCN3C)nc3c2CN(Cc2c(Cl)cccc2OC)C3)C[C@@H]1CC#N [1-38]	97%/ 97%	97%/ 97%
C=CC(=O)N1CCN(c2nc(OC[C@@H]3CCCN3C)nc3c2CN(Cc2cc(Cl)ccc2F)C3)C[C@@H]1CC#N [1-49]	81%	97%
C=CC(=O)N1C2CCCC1CN(c1nc(OC[C@@H]3CCCN3C)nc3c1CN(Cc1cc(O)ccc1Cl)C3)C2 [1-149]	0%	8%
C=CC(=O)N1CCN(c2nc(OC[C@@H]3CCCN3C)nc3c2CN(C2CCc4ccccc42)C3)C[C@@H]1Cn1ccnn1 (some centres unmarked) [1-214]	0%	2%
C=CC(=O)N1CCN(c2nc(OC[C@@H]3CCCN3C)nc3c2CN(C(C)c2c(O)cccc2F)C3)C[C@@H]1CC#N (some centres unmarked) [1-111]	87%	96%
C#CC1CN(c2nc(OC[C@@H]3CCCN3C)nc3c2CN(C2CCc4ccccc42)C3)CCN1C(=O)C=C (some centres unmarked) [1-121]	0%	4%
C=C(F)C(=O)N1CCN(c2nc(OC[C@@H]3CCCN3C)nc3c2CN(C2CCc4cccc(Cl)c42)C3)C[C@@H]1CC#N (some centres unmarked) [1-127]	64%	95%
C=CC(=O)N1CCN(c2nc(OC[C@@H]3CCCN3C)nc3c2CN(Cc2c(Cl)cccc2OC(F)F)C3)C[C@@H]1CC#N [1-82]	94%	98%
